Measured values reported in ChEMBL document CHEMBL5365472, “DDD-028: A potent, neuroprotective, non-opioid compound for the treatment of diabetic neuropathy” (Bioorg Med Chem Lett, 2023).
Calls of active or inactive are those of the source.

Assays:
Type in all cases: functional, organism-based
[1] = system: Rattus norvegicus; experiment: Analgesic activity in rat acute pain model at 3 mg/kg by tail flick test
[2] = system: Rattus norvegicus; experiment: Analgesic activity in rat acute pain model at 3 mg/kg by hot plate test
[3] = system: Rattus norvegicus; experiment: Anti-allodynic activity in rat model of STZ induced diabetic neuropathy assessed as reduction in mechanical hyperalgesia by measuring increase in weight bearing at 25 mg/kg, po measured after 90 min by paw pressure test
[4] = system: Rattus norvegicus; experiment: Anti-allodynic activity in rat model of STZ induced diabetic neuropathy assessed as reduction in mechanical allodynia by measuring increase in paw withdrawal threshold at 25 mg/kg, po measured for 90 min by electronic von frey test
[5] = system: Rattus norvegicus; experiment: Analgesic activity in rat acute pain model at 1 to 10 mg/kg by tail flick test; conditions: dose 1-10 mg/kg
[6] = system: Rattus norvegicus; experiment: Anti-allodynic activity in rat model of STZ induced diabetic neuropathy assessed as reduction in mechanical allodynia by measuring increase in paw withdrawal threshold at 1 mg/kg, po measured after 30 min by electronic von frey test
[7] = system: Rattus norvegicus; experiment: Anti-allodynic activity in rat model of STZ induced diabetic neuropathy assessed as reduction in mechanical hyperalgesia by measuring increase in weight bearing at 1 mg/kg, po measured after 30 min by paw pressure test
[8] = system: Mus musculus; experiment: Anti-allodynic activity in mouse model of CCI induced neuropathic pain assessed as increase in paw withdrawal threshold at 3 mg/kg, po by static von frey test
[9] = system: Rattus norvegicus; experiment: Analgesic activity in rat acute pain model at 1 to 10 mg/kg by hot plate test; conditions: dose 1-10 mg/kg

Row | SMILES | Activity [1] | Activity [2] | Activity [3] | Activity [4] | Activity [5] | Activity [6] | Activity [7] | Activity [8] | Activity [9]
1 | CN1CC[C@]23c4c5ccc(O)c4O[C@H]2[C@@H](O)C=C[C@H]3[C@H]1C5 | Active | Active |  |  |  |  |  |  | 
2 | CN1CCc2c(c3cccc4c3n2CCc2ccccc2-4)C1 |  |  | Active | Active | inactive | Active | Active | Active | inactive
